Experimental data from patent publication US20120045433A1, “COMBINATION THERAPY” (priority 2010, published 2012).
Counter-ions that a name gives are not always drawn.

Columns and labels:
[1] = tested on: human HT-29 cell xenografts; assay: Antitumor activity (tumor growth inhibition, regression) in mice with human HT-29 colorectal cancer xenografts; assay type: in vivo; settings: for % Tumor Growth Inhibition: Compound I 25 mg/kg bid, cetuximab 40 mg/kg 2x/wk, irinotecan HCl 40 mg/kg q4d x5, alone or combined
Source text: (§1) Mice were implanted with human HT-29 cell xenografts. The mice, cell line used, and implantation are described below.
Tumor measurements were taken once or twice per week. All animals were individually followed throughout the experiment.

[2] = tested on: human HT-29 cell xenografts; assay: Assessment of survival (increased life span) in mice with human HT-29 xenografts; assay type: in vivo; settings: for 50% Treatment Days: median survival, Kaplan Meier, vehicle 30 days, same doses
Experimental: as §1
For survival assessment, the percent of increased life space (ILS) was calculated as: 100×[(median survival day of treated group−median survival day of control group)/median survival day of control group]. Median survival was determined utilizing Kaplan Meier survival analysis. […] Differences between groups were considered significant when the probability value (p) was ≦0.05.

[3] = number of mice out of 10 per group, same doses

SMILES | Mean Tumor Volume (mm^3) End Study ([1]; Compound I 25 mg/kg bid po, cetuximab 40 mg/kg 2x/wk ip, irinotecan HCl 40 mg/kg q4d x5 ip, alone or combined, end of study day 32) | % Tumor Growth Inhibition [1] | Mean Tumor Volume (mm^3) Start Study ([1]; baseline at start of treatment (day 11 post implant)) | % Inhibition end of study Day: 32 ([1]; same doses) | % T/C end of study Day: 32 ([1]; same doses) | % ILS ([2]; increased life span versus vehicle, Compound I 25 mg/kg bid, cetuximab 40 mg/kg 2x/wk, irinotecan HCl 40 mg/kg q4d x5, alone or combined) | 50% Treatment Days [2] | Complete Regression [1, 3] | Partial Regression [1, 3]
CCCS(=O)(=O)Nc1ccc(F)c(C(=O)c2c[nH]c3ncc(-c4ccc(Cl)cc4)cc23)c1F [Compound I, propane-1-sulfonic acid {3-[5-(4-chlorophenyl)-1H-pyrrolo[2,3-b]pyridine-3-carbonyl]-2,4-difluoro-phenyl}-amide] | 563.72 mm^3 | 76% | 136.24 mm^3 | 76% | 24% | 80% | 54 days | – | –
CCc1c2c(nc3ccc(OC(=O)N4CCC(N5CCCCC5)CC4)cc13)-c1cc3c(c(=O)n1C2)COC(=O)[C@]3(O)CC [Irinotecan HCl, irinotecan hydrochloride, reference compound] | – | 59% | – | 59% | 41% | – | 35 days | 0 | 0
